Source: patent publication US20250134913A1, “ORAL DOSAGE FORMS OF TRβ AGONIST VK2809 FOR THE TREATMENT OF LIVER DISORDERS AND METHODS OF PREPARING THE SAME” (Viking Therapeutics, Inc., priority 2022, published 2025)
Converted amounts (≈) assume the structure as drawn.

Assays:
Format in all cases: physicochemical
physchem = assay: physchem
Experimental: The amorphous solubility of amorphous Compound 1 was determined by slow addition of the API from an organic stock solution into the aqueous medium of interest. When the amorphous solubility was reached, a drug rich phase formed and was measured by detection by scattering of UV/Visible light and/or by dynamic light scattering (DLS).
The solubility of amorphous Compound 1 was evaluated in PBS at pH 6.5 alone and with 0.5% simulated intestinal fluid (SIF). […] The onset of scattering in the SIF containing media occurred after 180-210 μg/mL Compound 1. […] This is consistent with the initial solubility testing where the crystalline solubility in PBS in the absence of bile salts is exceedingly low.

[1] = Closed stability packaging study of spray dried dispersions by HPLC; conditions: Stored at Room Temp.
Experimental: Due to the extensive degradation observed after 2 weeks at 40° C./75% RH open, a closed with desiccant condition stability study was initiated for Compound 1 SDDs. Samples were evaluated for stability at 2 weeks, 6 weeks, and 3 months when stored in 4 mL scintillation vials and sealed in 60 cc HDPE bottles with heat induction sealing and 0.5 g desiccant.
Chemical stability of Compound 1 SDDs after 2 weeks under closed conditions was evaluated by HPLC using the method provided herein in Table 4. […] All SDDs containing cellulosic polymers show the same growth of an impurity after 2 weeks at 40/75 closed. Upon closer inspection, this impurity is present in the in-going API at a level that was below the threshold used for integration. […] Further evidence of unknown degradants that may form during manufacture and co-elute with known synthetic impurities was observed. Closed stability degradation data at two weeks is provided in Table 6, while closed stability degradation data at six weeks is provided in Table 7. Additionally, no changes in particle morphology and crystallinity for the SDDs after 6 weeks at 40° C./75% RH were observed.

[2] = Open stability of spray dried dispersions by HPLC; conditions: Stored at Room Temp.
Experimental: The stability samples were tested using H-PLC using the method in Table 4.
The stability samples were tested for assay and related substances. […] This is mainly due to an API process-related impurity.

[3] = Stability study of tablet formulations; conditions: Stored at Room Temp.
Experimental: Tablet formulations were subjected to a stability study. Tablets were packaged in heat sealed HDPE bottles with minimal headspace and stored in temperature-controlled stability chambers at 50° C., 40° C., and 25° C., and 5° C. Humidity in the chambers was either controlled or allowed to be at ambient humidity. The conditions are listed for each particular formulation in Table 11 below.

[4] = Equilibrium solubility of crystalline Compound 1 (supernatant concentration after ultracentrifugation); conditions: 37° C.
Text: Experimental values for solubility, listed in Table 2, were obtained by measuring supernatant concentrations after centrifugation at 386,000×g.

[5] = Gastric-to-intestinal buffer (G-IB) transfer non-sink dissolution test
Experimental: The SDDs were evaluated in a non-sink dissolution test designed to monitor dissolution rate, as well as inhibition of crystallization, on transfer from simulated gastric to simulated intestinal media. For the gastric-to-intestinal buffer (G-IB) transfer dissolution test, pH 2 (“gastric”; “G”) media was added to each sample at a target dose concentration of 1000 μg Compound 1/mL. After 30 minutes of exposure to gastric media, concentrated simulated intestinal buffer was added to reach a final composition of 0.5% SIF in PBS, pH 6.5 at half the dose concentration (500 μg Compound 1/mL). This dose concentration was selected at twice the estimated amorphous solubility in an attempt to discriminate on dissolution rate and sustainment of supersaturation simultaneously. The concentration was monitored by UV fiber optic probes in situ (stir rate: 100 revolutions per minute) as well as being assessed by either microcentrifugation (15,800×g) or ultracentrifugation (300,000×g). The microcentrifuge separated the precipitate (undissolved drug) and total solubilized drug. Total solubilized drug consists of three solubilized species: freely solubilized drug (“free drug”), drug associated with bile salt micelles (“micelle bound drug”), and drug in small aggregate roughly 50-300 nm in size (“colloidal drug”). The ultracentrifuge further separates the colloidal drug and the supernatant contains only free drug and micelle bound drug. These three species have different activities in vivo and can be used to help differentiate formulations. Free drug is the smallest species and is the only species considered to partition directly into the cell membrane of the epithelium. Micelle bound drug can cross the unstirred mucous boundary layer and source free drug once a concentration gradient has been created by freely solubilized drug being absorbed. Finally, the drug-polymer colloids are a source of rapidly dissolving drug and may, in some cases, penetrate the unstirred mucous boundary layer (Stewart et al. Mol. Pharmaceutics, 2017, 12, 2437-2449)
All SDD formulations containing enteric polymers reached the amorphous solubility in intestinal buffer within 10 minutes. […] The exact reason for this shift is currently unknown. It may be attributable to detector saturation, arising from the undissolved solids, or a specific interaction between the drug and polymer in solution.

[6] = Closed stability packaging study of PVP-VA SDDs by HPLC; conditions: Stored at Room Temp.
Experimental: Chemical stability of PVP-VA-containing SDDs of Compound 1 under closed conditions was evaluated by HPLC using the method provided herein in Table 4.

solubility (physchem; 37 °C, pH 6.5, fassif, kinetic from dmso stock): 180 to 210 µg/mL (≈ 350 to 408 µM)
Compound 1 Relative abundance ([1]; 2 week analysis): 97.07%
Impurities Relative abundance ([1]; 2 week analysis): 2.95%
Compound 1 Relative abundance ([1]; 6 week analysis): 97.70%
Impurities Relative abundance ([1]; 6 week analysis): 2.33%
Compound 1 Relative abundance [2]: 97.61%
Impurities Relative abundance [2]: 2.47%
Compound 1 Relative abundance ([3]; 2 month analysis): 97.22%
Impurities Relative abundance ([3]; 2 month analysis): 2.78%
Compound 1 Relative abundance ([3]; 3 month analysis): 97.45%
Impurities Relative abundance ([3]; 3 month analysis): 2.55%
Ultracentrifuge Concentration ([4]; 0.01N HCl, 90 min): <0.05 μg Compound 1/mL
Ultracentrifuge Concentration ([4]; 0.01N HCl, 20 hours): <0.05 μg Compound 1/mL
Ultracentrifuge Concentration ([4]; 0.5% Simulated intestinal fluid (SIF) in PBS, pH 6.5, 90 min): 92 μg Compound 1/mL
Ultracentrifuge Concentration ([4]; 0.5% Simulated intestinal fluid (SIF) in PBS, pH 6.5, 20 hours): 87 μg Compound 1/mL
Ultracentrifuge Concentration ([4]; PBS, pH 6.5, 90 min): <0.05 μg Compound 1/mL
Ultracentrifuge Concentration ([4]; PBS, pH 6.5, 20 hours): 0.6 μg Compound 1/mL
Concentration, IB 10 min, micro ([5]; 0.5% SIF in PBS pH 6.5, 10 min, microcentrifuge, dose 500 μg/mL): 39 μg Compound 1/mL
Concentration, IB 10 min, ultra ([5]; 0.5% SIF in PBS pH 6.5, 10 min, ultracentrifuge, dose 500 μg/mL): 49 μg Compound 1/mL
Concentration, IB 90 min, micro ([5]; 0.5% SIF in PBS pH 6.5, 90 min, microcentrifuge, dose 500 μg/mL): 88 μg Compound 1/mL
Concentration, IB 90 min, ultra ([5]; 0.5% SIF in PBS pH 6.5, 90 min, ultracentrifuge, dose 500 μg/mL): 88 μg Compound 1/mL
Concentration, G 20 min, micro ([5]; gastric media pH 2, 20 min, microcentrifuge, dose 1000 μg/mL): 0 μg Compound 1/mL
Compound 1 Relative abundance [6]: 97.54%
Impurities Relative abundance [6]: 2.33%
Compound: Cc1cc(OC[P@@]2(=O)OCC[C@@H](c3cccc(Cl)c3)O2)cc(C)c1Cc1ccc(O)c(C(C)C)c1 [Compound 1]
Amorphous solubility behaviour (physchem; pH 6.5): precipitated as soon as the stock solution was introduced to the medium
